Test results taken from article PMC9774438, “Effects of Synthetic Short Cationic Antimicrobial Peptides on the Catalytic Activity of Myeloperoxidase, Reducing Its Oxidative Capacity” (Antioxidants, 2022).
Entries after “also recorded” stand apart in the source; their conditions may differ.

What was measured:
[1] = target: T1, myeloperoxidase (MPO) (Homo sapiens, UniProt P05164); assay: MPO heme absorbance spectra (Compound II formation and decay, MPO turnover); format: biochemical; conditions: 100 μM H2O2, 10 mM Na-phosphate pH 7.4
T1 construct: Native myeloperoxidase (MPO) was obtained from human leukocyte extract by successive chromatography on heparin-Sepharose and phenyl-agarose; from tissue; host or cells: human leukocyte extract
T1 sequence (P05164 279-745 limits assumed): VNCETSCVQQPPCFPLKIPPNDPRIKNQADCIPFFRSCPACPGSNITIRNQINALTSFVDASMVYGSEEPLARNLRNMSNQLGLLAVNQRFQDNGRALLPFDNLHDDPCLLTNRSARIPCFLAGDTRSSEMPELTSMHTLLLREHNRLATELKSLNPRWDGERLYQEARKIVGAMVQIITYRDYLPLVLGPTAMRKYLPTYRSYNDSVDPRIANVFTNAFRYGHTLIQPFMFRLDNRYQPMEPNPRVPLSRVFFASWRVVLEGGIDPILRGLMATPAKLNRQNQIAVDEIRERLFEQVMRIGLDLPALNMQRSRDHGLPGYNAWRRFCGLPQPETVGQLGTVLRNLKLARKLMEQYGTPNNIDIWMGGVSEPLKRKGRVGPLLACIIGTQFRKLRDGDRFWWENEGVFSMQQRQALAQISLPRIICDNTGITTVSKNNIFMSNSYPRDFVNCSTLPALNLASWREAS
T1 sequence (P05164 165-273 limits assumed): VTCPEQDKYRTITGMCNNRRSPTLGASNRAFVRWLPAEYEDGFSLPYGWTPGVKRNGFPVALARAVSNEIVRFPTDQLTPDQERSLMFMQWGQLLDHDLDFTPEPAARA
Procedure: Native myeloperoxidase (MPO) was obtained from human leukocyte extract by successive chromatography on heparin-Sepharose and phenyl-agarose followed by gel-filtration on a Sephacryl S-200 HR, as previously described. The Reinheit Zahl value (A430 nm/A280 nm) for the purified protein was 0.85. The MPO concentration was determined as the heme concentration measured spectrophotometrically at 430 nm with a molar extinction coefficient of 91,000 M^−1 cm^−1 [35].
Spectra of MPO were recorded on a Cary 50 Bio UV-Vis spectrophotometer (Varian, Mulgrave, Australia). Experiments were performed with Eppendorf UVette plastic UV/Vis cuvettes (Hamburg, Germany). An MPO concentration was 2 μM heme. MPO was mixed with CAMP in 10 mM Na-phosphate buffer (pH 7.4) supplemented with 0.2 mM DTPA. H2O2 was added as a microvolume of concentrated solution (100 μM final).
To elucidate the influence of CAMPs on MPO catalytic activity, we analyzed absorbance spectral changes for MPO activated by H2O2 in the presence of peptides. The spectra were obtained with 2 μM MPO heme and 100 μM H2O2 in 10 mM Na-phosphate buffer, pH 7.4. All reactions in these and further experiments were performed in buffers supplemented with 0.2 mM diethylenetriaminepentaacetic acid (DTPA) to sequester free transition metal ions to prevent tyrosine and cysteine autooxidation.
Figure 2 Time courses of spectral absorbance changes at 430 nm (indicative of MPO ground state) and 455 nm (indicative of Compound II) in the absence and presence of cationic antimicrobial peptides (CAMPs) in the system MPO/H2O2. The name of CAMP is given in parentheses after the panel designation (A–D). H2O2 (100 µM) was added to MPO (2 µM heme) or MPO preincubated with peptides at different peptide/heme molar ratios for 5 min in 10 mM Na-phosphate buffer, pH 7.4. Spectra were taken before and 0.25 min, 5 min, 10 min, and so on after adding H2O2. The initial absorbance values (before H2O2 addition) are shown as a red square marker. […]

[2] = target: T1, myeloperoxidase (MPO); assay: MPO peroxidase activity (Amplex Red assay); format: biochemical; conditions: 0.8–50 μM peptide, 8 nM MPO heme, 50 μM Amplex Red, 25 μM H2O2, 50 mM K-phosphate pH 7.4
Procedure: MPO peroxidase activity was evaluated fluorometrically using Amplex Red^TM reagent which was oxidized by MPO to the fluorescent resorufin (λex = 530 nm, λem = 590 nm). The assay was performed in 96-plate format. The final reaction mixture in 50 mM K-phosphate buffer (pH 7.4) was as follows: MPO, 8 nM heme; peptide, […]; H2O2, 25 μM; Amplex Red reagent, 50 μM. MPO was preincubated with peptides for 5 min in a volume of 100 μl. Then, Amplex Red was added, and the enzymatic reaction was initiated by adding H2O2 (a final probe volume of 200 μL per well). The fluorescence measurement was made with a CLARIOstar multimodal plate reader (BMG Labtech, Ortenberg, Germany) at 5 min after the beginning of the reaction. To determine the type of CAMP-induced inhibition, KM and Vmax were obtained by varying substrates of MPO: Amplex Red in a final concentration from 1 to 62.5 μM, or H2O2 in a final concentration from 0.625 to 20 μM.
The Hannes-Wolf plots were made as ([Substrate]/V = f([Substrate]). KM was equal in magnitude to the intercept made on the abscissa axis by the approximating straight line; Vmax was calculated as a reciprocal value of the straight-line slope. The inhibition constant (Ki) for noncompetitive inhibition was calculated as follows: Ki = [I]/((Vmax − Vmax’)/Vmax’); Ki for competitive inhibition was calculated as follows: Ki = [I]/((KM’ − KM)/KM); Ki for mixed inhibition was calculated as follows: Ki = [I]/(((KM’ − KM)/KM)^2 + ((Vmax − Vmax’)/Vmax’))^2)^0.5; and Ki for uncompetitive inhibition was calculated as follows: Ki = [I]/(((KM − KM’)/KM’)^2 + ((Vmax – Vmax’)/Vmax’))^2)^0.5, where [I]—concentration of inhibitor (CAMP), KM—Michaelis constant without inhibitor, Vmax—maximal rate without inhibitor, KM’—Michaelis constant in the presence of inhibitor, Vmax’—maximal rate in the presence of inhibitor.
From the experiments with varying concentrations of H2O2 (0.01–200 μM) and Amplex Red (6.25–100 μM), the optimal concentrations of 25 μM H2O2 and 50 μM Amplex Red were chosen for further work. The 0.8–50 μM concentration range (corresponding to 100–6250 peptide molecules per heme) was used to determine the concentration dependence of the effect of CAMPs on peroxidase activity of MPO.

Sequence: EKRWRRLIFNYF [Hm-AMP2, synthetic cationic antimicrobial peptide …]
- effect on H2O2-induced formation and decay of MPO Compound II / MPO turnover (summary) ([1]; 2 μM MPO heme, all concentrations): accelerated MPO turnover; also recorded: Acceleration of CII reduction to native MPO
- effect on Compound II decay to native MPO ([1]; peptide/heme molar ratio up to 45:1, 2 μM MPO heme): accelerated Compound II decay to native MPO, with the effect being greater at a higher peptide/heme molar ratio
- effect on MPO peroxidase activity [2]: no inhibition; also recorded: No effect
